# Like-named read-outs stand apart in the source and are kept apart here.
# Assays:
# [1] = test system: spinal cord neurons (SCNs); assay: Spontaneous calcium oscillation (SCO) measurement, FLIPR Tetra, primary cultured spinal cord neurons; assay type: cell-based, C57BL/6 mice; details: 6-8 DIV, N = 4 wells; for EC50: primary cultured SCNs, FLIPR Tetra, Hill slope = 1.0
# Description: (§1) SCN cultures were performed as described previously. The dissociated neurons were planted into poly-L-lysine-coated 35 mm Petri dishes, 96-well plates at densities of 2 × 10^3 cells/dish for patch clamp, 2.25 × 10^5 and 2 × 10^3 cells/well for Ca^2+ imaging and neurite outgrowth experiments, respectively. Cells at 6–8 DIVs (days in vitro) were used to measure K^+ and Na^+ currents, membrane potential, or intracellular Ca^2+ concentration ([Ca^2+]i).
# The intracellular Ca^2+ concentration [Ca^2+]i of SCNs was measured using FLIPR^Tetra® system (Molecular Devices, Sunnyvale, CA, USA) as described previously.
# All data were presented as mean ± SEM. Graphing and data analysis were performed using GraphPad Prism software (Version 6.0, San Diego, CA, USA). Concentration–response curves were fitted by a nonlinear logistic equation. The IC50 values and 95% confidence intervals (CI) were determined by nonlinear regression using GraphPad Prism software. Statistical significance between different groups was calculated using an ANOVA and, where appropriate, a Dunnett′s multiple comparison test. A p-value below 0.05 was considered statistically significant.
# [2] = test system: spinal cord neurons (SCNs), membrane potential; assay: Membrane potential, whole-cell current-clamp recording in SCNs; assay type: cell-based, C57BL/6 mice
# Description: as §1
# (§2) Current-clamp recordings can provide useful information about the contribution of a channel to membrane potential. Membrane potentials, Na^+ and K^+ currents in SCNs (6–8 DIVs), were recorded using whole-cell patch clamp using an EPC-10 amplifier and PatchMaster software (HEKA, Pfalz, Germany). Pipettes were pulled from 1.5 mm capillary tubing using a P-1000 puller (Sutter Instrument, Novato, CA, USA). The pipette resistance was 2–4 MΩ.
# For current-clamp recordings, to record changes in membrane potential, patch pipettes were filled with intracellular solution containing the following (in mM): KCl 140, MgCl2 5, CaCl2 2.5, EGTA 5, ATP 4, GTP 0.3, and HEPES 10 (pH adjusted to 7.3 with KOH). […] The membrane potentials were recorded by a 0 pA input current with a duration of 1 s. […] Data were collected and analyzed using PatchMaster (HEKA Electronics, Pfalz, Germany) and SigmaPlot (version 10.3, Sigma-Aldrich). […]
# [3] = test system: Kv channels, outward K+ currents (IK) in SCNs; assay: Outward K+ current IK (IA + ID), whole-cell patch clamp in SCNs; assay type: cell-based, C57BL/6 mice
# Description: as §1, §2
# For current-clamp recordings, to record changes in membrane potential, patch pipettes were filled with intracellular solution containing the following (in mM): KCl 140, MgCl2 5, CaCl2 2.5, EGTA 5, ATP 4, GTP 0.3, and HEPES 10 (pH adjusted to 7.3 with KOH). The external solution contained the following (in mM): NaCl 140, MgCl2 1, KCl 5, CaCl2 2, glucose 10, and HEPES 10 (pH adjusted to 7.3 with NaOH). The membrane potentials were recorded by a 0 pA input current with a duration of 1 s. For voltage-clamp recordings, to record potassium currents, patch pipettes were filled with an internal solution containing (in mM): KCl 140, CaCl2 1, MgCl2 2.5, HEPES 10, EGTA 11, and ATP 4, and pH was adjusted to 7.2 with KOH. Cells were bathed in an external solution containing the following (in mM): choline chloride 150, KCl 5, MgCl2 1, HEPES 10, D-glucose 10, and NMDG 2, and pH was adjusted to 7.4 with KOH. To record sodium currents, patch pipettes were filled with an internal solution containing the following (in mM): CsF 135, HEPES 5, and NaCl 10, and pH was adjusted to 7.2 with CsOH. Cells were bathed in external solution containing the following (in […]): NaCl 30, MgCl2 1, CaCl2 1.8, CsCl 5, D-glucose 25, KCl 5, HEPES 5, TEACl 90, and KCl 5, and pH was adjusted to 7.4 with NaOH. Capacitance and series resistance were compensated using computer-controlled circuitry of the amplifier. The outward potassium currents (IK), which contain both transient (IA) and sustained delayed-rectifier (ID) components, were elicited by a series of depolarizing pulses from −110 mV to the potentials ranged from −60 to +80 mV in a 10 mV increment. To record the ID currents, voltages were stepped to the potentials ranged from −60 to +80 mV in a 10 mV increment from a 200 ms pre-depolarization potential of −40 mV that inactivated IA currents. IA currents were obtained by subtracting ID currents from IK currents. Na^+ currents were elicited by depolarization steps from a holding potential of −100 mV to +45 mV in a 5 mV increment. Data were collected and analyzed using PatchMaster (HEKA Electronics, Pfalz, Germany) and SigmaPlot (version 10.3, Sigma-Aldrich). Concentration–response curves were fitted using the Hill equation: Inor= C + A/[1 + ([BmK NSPK]/EC50)^p] […]
# (§3) All data were presented as mean ± SEM. […] Statistical significance between different groups was calculated using an ANOVA and, where appropriate, a Dunnett′s multiple comparison test. […]
# [4] = test system: Kv channels, delayed-rectifier (ID) currents in SCNs; assay: Sustained delayed-rectifier K+ current ID, whole-cell patch clamp in SCNs; assay type: cell-based, C57BL/6 mice
# Description: as §1, §2
# (§4) For current-clamp recordings, to record changes in membrane potential, patch pipettes were filled with intracellular solution containing the following (in mM): KCl 140, MgCl2 5, CaCl2 2.5, EGTA 5, ATP 4, GTP 0.3, and HEPES 10 (pH adjusted to 7.3 with KOH). The external solution contained the following (in mM): NaCl 140, MgCl2 1, KCl 5, CaCl2 2, glucose 10, and HEPES 10 (pH adjusted to 7.3 with NaOH). The membrane potentials were recorded by a 0 pA input current with a duration of 1 s. For voltage-clamp recordings, to record potassium currents, patch pipettes were filled with an internal solution containing (in mM): KCl 140, CaCl2 1, MgCl2 2.5, HEPES 10, EGTA 11, and ATP 4, and pH was adjusted to 7.2 with KOH. Cells were bathed in an external solution containing the following (in mM): choline chloride 150, KCl 5, MgCl2 1, HEPES 10, D-glucose 10, and NMDG 2, and pH was adjusted to 7.4 with KOH. […] Data were collected and analyzed using PatchMaster (HEKA Electronics, Pfalz, Germany) and SigmaPlot (version 10.3, Sigma-Aldrich). […]
# as §3
# [5] = test system: Kv channels, transient (IA) currents in SCNs; assay: Transient K+ current IA, whole-cell patch clamp in SCNs; assay type: cell-based, C57BL/6 mice
# Description: as §1, §2, §4, §3
# [6] = test system: voltage-gated sodium channels (VGSCs), Na+ currents in SCNs; assay: Na+ currents, whole-cell patch clamp in SCNs; assay type: cell-based, C57BL/6 mice
# Description: as §1, §2, §4
# [7] = test system: spinal cord neurons (SCNs); assay: Neurite outgrowth, MAP2 immunocytochemistry in SCNs; assay type: cell-based, C57BL/6 mice
# Description: as §1
# Immunocytochemistry was performed as described previously. After fixation, permeabilization, and blocking, neurons were incubated with primary antibody against MAP2 (1:1000) overnight at 4 °C and Alexa Fluor 488-conjugated goat anti-rabbit secondary antibody (1:1000) for 1 h at room temperature (RT), respectively. Hoechst 33,342 (1.6 μg/mL) was added into each well and incubated for 20 min to stain the nuclei. The images were captured by an eclipse inverted fluorescence microscope (Nikon, Tokyo, Japan). Neurites were manually tracked using ImageJ software (FIJI, version 1.51 g, NIH, Bethesda, MD, USA). Only the neurons with total neurite length ≥50 μm were used for quantification. The experiment was performed double blindly.
# [8] = test system: nerve growth factor (NGF) release in SCNs; assay: NGF release into culture medium of SCNs, ELISA; assay type: cell-based, C57BL/6 mice; details: 10 nM, n = 4
# Description: The NGF levels in the culture medium were determined by enzyme-linked immunosorbent assay (ELISA) kits according to the manufacturer’s instructions.
# [9] = test system: protein kinase B (Akt) phosphorylation in SCNs; assay: Akt phosphorylation in SCNs, Western blot; assay type: cell-based, C57BL/6 mice; details: 30 nM, n = 4
# Description: Equal amounts (30 μg) of cell lysates were loaded onto a 10% SDS-PAGE gel and transferred to a nitrocellulose membrane by electroblotting. After blocking, the blots were incubated with primary antibodies against p-Akt (1:1000) overnight at 4 °C and then incubated with the IRDye (680 RD or 800 CW)-labeled secondary antibodies (1:10,000) for 1 h at RT. The membranes were scanned and densitometry was quantified using LI-COR Odyssey Infrared Imaging System and its application software (version 2.1, LI-COR Biotechnology). The membranes were stripped with stripping buffer (LI-COR Biotechnology) and reblotted for analysis of the expression of Akt. Beta-tubulin (1:10,000) was used as a loading control.
# [10] = test system: PC12 cells; details: via TrkA receptors; ref [38]; cited from earlier work
# [11] = test system: sensory neurons; details: via TrkA receptors; ref [39]; cited from earlier work
molecule,measurement,setting,value
"BmK NSPK: new short-chain scorpion peptide purified from Buthus martensii Karsch venom, Kv channel inhibitor, sequence by Edman degradation (VGKNVICIHSGQCLIPCIDAGMRFGICKNGICDCTPKG)",Effect on amplitude and frequency of SCOs,[1]; SCNs,rapid and sustained increase in both the amplitude and frequency of SCOs
same,EC50,"[1]; 95% CI 2.22–17.4 nM, read-out: EC50 for increase in SCO frequency",6.22 nM
same,EC50,"[1]; 95% CI 4.00–45.1 nM, read-out: EC50 for increase in SCO amplitude",13.4 nM
same,Apparent affinity for membrane depolarization (and SCO increase),"[2]; SCN cultures, discussion wording",low apparent nanomolar affinity
same,Effect on membrane potential,"[2]; SCNs, 6-8 DIV, 0 pA input, whole-cell current clamp",concentration-dependent membrane depolarization
same,Voltage dependence of IK inhibition,[3]; 300 nM,voltage-dependent
same,Effect on IK currents,"[3]; 300 nM, depolarizing potentials −60 to +80 mV from holding −110 mV",inhibited the IK currents at all depolarized potentials
same,IC50,"[3]; depolarization from -110 mV to +70 mV, 95% CI 0.68–8.61 nM, Hill slope = −0.86, N = 4–5 neurons, read-out: IC50, suppression of IK currents",2.42 nM
same,Potency on outward potassium channel currents,"[3]; discussion wording, SCNs",single-digit nanomolar concentrations
same,"Completeness of inhibition of IK, IA and ID currents",[3]; highest concentration (100 nM),incomplete even at the highest concentration (100 nM)
same,Effect on ID currents,"[4]; 300 nM, potentials −60 to +80 mV after 200 ms pre-depolarization at −40 mV",inhibited ID currents elicited by a series of depolarization potentials with voltage dependence
same,Maximal inhibition of ID currents,[4]; Figure 4J,~ 43%
same,IC50,"[4]; depolarization from -40 mV to +70 mV, 95% CI 0.68–7.44 nM, Hill slope = −0.86, N = 4–5 neurons, read-out: IC50, suppression of ID currents",2.24 nM
same,Effect on IA currents,"[5]; 300 nM, each depolarizing potential",suppressed IA currents at each depolarizing potential
same,Maximal inhibition of IA currents,[5]; Figure 4J,~ 75%
same,IC50,"[5]; IA = IK minus ID, 95% CI 0.41–2.13 nM, Hill slope = −1.27, N = 4–5 neurons, read-out: IC50, suppression of IA currents",0.93 nM
same,Effect on Na+ currents,"[6]; 1000 nM, holding −100 mV to +45 mV in 5 mV increments, N = 4–5 neurons",no effect on the Na^+ currents
same,Effect on VGSCs,[6]; discussion wording,little effect on VGSCs
same,Concentration of maximal stimulation of neurite extension,[7]; 48 h exposure commencing 5 h post-plating,~ 10 nM
same,Effect on neurite extension,"[7]; 48 h exposure commencing 5 h post-plating, MAP2 staining",stimulated neurite extension in cultured SCNs in a nonmonotonic manner
same,Duration of NGF release,[8],at least 8 h
same,Increase in NGF release,[8]; p < 0.05 vs. Veh,~ 50%
same,Duration of Akt phosphorylation increase,[9],≥ 30 min
same,Onset of Akt phosphorylation increase,[9],≤ 5 min
same,Phosphorylated levels of Akt,[9]; p < 0.01 vs. Veh,rapidly increased phosphorylated levels of Akt
"Cn1cc(/C=C2\C(=O)Nc3cccnc32)c2ccccc21 [GW 441756, reference compound]",Effect on BmK NSPK-induced neurite outgrowth,"[7]; GW 441756 1 μM added 30 min before BmK NSPK (10 nM), 48 h, p < 0.01 vs. BmK NSPK",abolished BmK NSPK-induced neurite outgrowth
"NC1=N[C@H](O)[C@H]2[C@H]3O[C@]4(O)O[C@@H]([C@@H](O)[C@@]2(N1)[C@@H]4O)[C@]3(O)CO [tetrodotoxin, reference compound]",Effect on Na+ currents,[6],suppressed the Na^+ currents
nerve growth factor [NGF],Effect on neurite extension,[10],enhance the neurite extension
same,Effect on neurite extension,[11],enhance the neurite extension
